Assay results: the supplement of paper PMC10307832

Legend:
Zebularine + Foretinib = compound: O=c1ncccn1[C@@H]1O[C@H](CO)[C@@H](O)[C@H]1O [Zebularine] + COc1cc2c(Oc3ccc(NC(=O)C4(C(=O)Nc5ccc(F)cc5)CC4)cc3F)ccnc2cc1OCCCN1CCOCC1 [Foretinib] (partner 0.25 µM); test: relative viability (nuclei count vs DMSO), 5 days (fraction); higher = more cells survive
How it was run: (§1)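 Lung cancer cell lines were pin-tool dosed in 1536-well plates on the day after seeding, with either a lone drug or a fixed anchor-drug dose plus five library-drug doses (not always all listed) in √10 steps. Nuclei were counted on 4× images after 5 days. Relative viability is the ratio of treated-well to vehicle-well nuclei counts, with each value a median of duplicate plates.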

BI-D1870 + Navitoclax = compound: CC(C)CCN1c2nc(Nc3cc(F)c(O)c(F)c3)ncc2N(C)C(=O)C1C [BI-D1870] + CC1(C)CCC(c2ccc(Cl)cc2)=C(CN2CCN(c3ccc(C(=O)NS(=O)(=O)c4ccc(N[C@H](CCN5CCOCC5)CSc5ccccc5)c(S(=O)(=O)C(F)(F)F)c4)cc3)CC2)C1 [Navitoclax] (partner 0.5 µM); test: as above
How it was run: as §1

Cell Line | relative viability (Zebularine + Foretinib; first compound 1 µM) | relative viability (Zebularine + Foretinib; first compound 3.162 µM) | relative viability (Zebularine + Foretinib; first compound 10 µM) | relative viability (Zebularine + Foretinib; first compound 31.62 µM) | relative viability (Zebularine + Foretinib; first compound 100 µM) | relative viability (BI-D1870 + Navitoclax; first compound 0.04 µM) | relative viability (BI-D1870 + Navitoclax; first compound 0.1265 µM) | relative viability (BI-D1870 + Navitoclax; first compound 0.4 µM) | relative viability (BI-D1870 + Navitoclax; first compound 1.265 µM) | relative viability (BI-D1870 + Navitoclax; first compound 4 µM)
LCLC-103H | 0.785 | 0.861 | 0.456 | 0.78 | 0.469 |  |  |  |  | 
EKVX | 0.893 | 0.624 | 0.731 | 0.753 | 0.75 | 1.01 | 0.909 | 0.889 | 1 | 0.922
LXF-289 | 1.09 | 0.984 | 0.847 | 0.626 | 0.241 | 0.951 | 0.923 | 0.94 | 0.936 | 0.895
ABC-1 | 1.16 | 1.11 | 0.681 | 0.783 | 0.473 |  |  |  |  | 
NCI-H650 | 1.02 | 0.934 | 0.824 | 0.447 | 0.258 |  |  |  |  | 
NCI-H1650 | 1.26 | 1.02 | 0.905 | 1.46 | 1.07 | 1.26 | 1.05 | 1.23 | 1.34 | 1.15
NCI-H2085 | 0.879 | 1.06 | 0.785 | 0.833 | 0.503 | 1.14 | 1.07 | 1.11 | 1.06 | 0.865
NCI-H1793 | 0.685 | 0.84 |  | 0.573 | 0.207 | 0.34 | 0.342 | 0.372 | 0.554 | 0.45
LC-2-ad | 0.868 | 0.828 | 0.717 | 0.674 | 0.454 | 0.549 | 0.44 | 0.444 | 0.41 | 0.244
COR-L 105 | 1.02 | 0.938 | 0.755 | 1.33 | 0.91 | 0.863 | 0.673 | 0.761 | 0.997 | 0.75
NCI-H1355 | 1.02 | 0.907 | 0.631 | 0.47 | 0.325 | 0.959 | 0.959 | 0.988 | 1.05 | 1.03
H3255 | 0.94 | 0.98 | 0.766 | 0.959 | 0.897 | 0.688 | 0.598 | 0.56 | 0.595 | 0.468
NCI-H1993 | 0.843 | 0.697 | 0.718 | 0.753 | 0.704 | 0.91 | 0.888 | 0.988 | 1.07 | 0.73
NCI-H1734 | 0.931 | 0.864 | 0.631 | 0.529 | 0.299 | 0.875 | 0.757 | 0.842 | 0.849 | 0.81
HOP-62 | 1.28 | 1.15 | 0.335 | 0.252 | 0.186 | 1.06 | 1.01 | 0.995 | 1.2 | 1.01
LOU-NH91 | 0.95 | 0.888 | 0.866 | 0.947 | 0.567 | 0.854 | 0.631 | 0.721 | 0.662 | 0.522
ChaGo-K-1 | 0.939 | 0.824 | 0.337 | 0.252 | 0.203 | 0.94 | 0.976 | 0.808 | 1.03 | 0.654
NCI-H2228 | 0.902 | 0.898 | 0.507 | 0.914 | 0.281 | 0.94 | 0.811 | 0.819 | 0.823 | 0.359
PC-14 | 1.03 | 0.878 | 0.48 | 0.191 | 0.158 | 1.08 | 0.961 | 0.991 | 1.07 | 0.928

Cell Line | relative viability (Zebularine + Foretinib; first compound 1 µM) | relative viability (Zebularine + Foretinib; first compound 3.162 µM) | relative viability (Zebularine + Foretinib; first compound 10 µM) | relative viability (Zebularine + Foretinib; first compound 31.62 µM) | relative viability (Zebularine + Foretinib; first compound 100 µM) | relative viability (BI-D1870 + Navitoclax; first compound 0.04 µM) | relative viability (BI-D1870 + Navitoclax; first compound 0.1265 µM) | relative viability (BI-D1870 + Navitoclax; first compound 0.4 µM) | relative viability (BI-D1870 + Navitoclax; first compound 1.265 µM) | relative viability (BI-D1870 + Navitoclax; first compound 4 µM)
NCI-H1437 | 1.33 | 1.29 | 1.04 | 1.21 | 0.653 | 1.19 | 1.06 | 1.11 | 1.03 | 0.973
NCI-H460 | 1.08 | 0.948 | 0.689 | 0.463 | 0.0513 | 1.24 | 1.09 | 1.08 | 0.407 | 0.0595
NCI-H1666 | 0.94 | 0.919 | 0.805 | 0.999 | 0.805 | 0.89 | 0.822 | 0.81 | 0.933 | 0.851
SW 900 | 1.28 | 0.633 | 0.545 | 0.762 | 0.498 |  |  |  |  | 
NCI-H1651 | 0.856 | 0.93 | 0.511 | 0.738 | 0.374 | 1.15 | 0.946 | 0.935 | 1.08 | 0.778
NCI-H1755 | 0.925 | 0.918 | 0.854 | 0.992 | 0.591 | 1.06 | 0.945 | 0.995 | 1.07 | 1.01
NCI-H661 | 0.989 | 1.04 | 0.991 | 1.18 | 1.02 |  |  |  |  | 
HARA | 0.979 |  |  | 0.912 | 0.584 | 1.2 | 1.13 | 1.16 | 1.23 | 1.08
NCI-H596 | 0.75 | 0.926 | 0.559 | 0.891 | 0.602 | 1.21 | 0.922 | 0.947 | 1.2 | 0.987
NCI-H1563 | 0.915 | 0.952 | 0.922 | 0.991 | 0.898 |  |  |  |  | 
NCI-H23 | 1.09 | 1.1 | 0.658 | 0.893 | 0.854 | 1.15 | 0.741 | 0.792 | 0.891 | 0.888
A549 | 0.898 | 0.996 | 0.743 | 0.855 | 0.0887 | 1.31 | 1.15 | 1.28 | 1.15 | 0.123
LCLC-97TM1 | 0.929 | 1 | 0.704 | 0.27 | 0.212 | 0.407 | 0.398 | 0.574 | 0.364 | 0.613
EPLC-272H | 0.958 | 0.591 | 0.6 | 0.631 | 0.468 | 1.3 | 0.932 | 1.05 | 1.24 | 1.03
NCI-H2342 | 1.33 | 1.07 | 0.802 | 0.953 | 0.748 |  |  |  |  | 
NCI-H1915 | 1.3 | 1.11 |  | 1.26 | 0.984 | 0.822 | 0.763 | 0.803 | 0.815 | 0.746
NCI-H1623 | 1 | 0.733 | 0.723 | 0.791 | 0.484 |  |  |  |  | 
NCI-H358 | 0.723 | 0.602 | 0.476 | 0.391 | 0.184 |  |  |  |  | 
